pIC50: −log10 of the molar value.
target: T1, Genome polyprotein [2420-3010] (HCV, UniProt P26663); assay: Inhibition Assay; settings: pH 7.3; 25 °C
T1 construct: 2420-3010
T1 sequence (P26663 2420-3010): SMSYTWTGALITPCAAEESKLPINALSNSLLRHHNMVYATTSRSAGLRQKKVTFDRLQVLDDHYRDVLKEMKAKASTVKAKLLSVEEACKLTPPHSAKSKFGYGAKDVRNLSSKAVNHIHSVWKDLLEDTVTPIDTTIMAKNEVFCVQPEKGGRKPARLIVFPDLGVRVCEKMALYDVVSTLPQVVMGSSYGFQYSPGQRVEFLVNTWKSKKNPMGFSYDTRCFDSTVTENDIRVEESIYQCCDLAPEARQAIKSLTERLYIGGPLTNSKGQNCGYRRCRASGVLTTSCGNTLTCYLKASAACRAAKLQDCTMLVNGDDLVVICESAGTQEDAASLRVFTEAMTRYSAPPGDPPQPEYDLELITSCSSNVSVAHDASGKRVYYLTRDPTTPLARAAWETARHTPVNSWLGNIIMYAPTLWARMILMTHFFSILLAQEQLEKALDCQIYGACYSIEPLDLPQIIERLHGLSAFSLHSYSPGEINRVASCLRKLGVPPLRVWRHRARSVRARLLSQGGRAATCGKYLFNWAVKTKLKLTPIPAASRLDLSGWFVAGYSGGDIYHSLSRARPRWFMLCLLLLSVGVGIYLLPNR
Method: To measure inhibition of the enzymatic activity of the HCV NS5B RNA-dependent RNA polymerase by the nucleoside triphosphate compounds of the present invention, a radiolabeled nucleotide incorporation assay was used. […] The assay was then terminated by the addition of 500 mM EDTA (50 μL). The reaction mixture was transferred to a Millipore DE81 filter plate and the incorporation of labeled CTP is determined using Packard TopCount.

Compound | pIC50
C[C@@]1(N=[N+]=[N-])[C@H](O)[C@@H](COP(=O)(O)OP(=O)(O)OP(=O)(O)O)O[C@H]1c1cnc2c(N)ncnn12 [US9457039, 22] | 6.03
C[C@@]1(N)[C@H](O)[C@@H](COP(=O)(O)OP(=O)(O)OP(=O)(O)O)O[C@H]1c1cnc2c(N)ncnn12 [US9457039, 23] | 5.17
C[C@@]1(N)[C@H](O)[C@@H](COP(=O)(O)OP(=O)(O)OP(=O)(O)O)O[C@H]1c1ccc2c(N)ncnn12 [US9457039, 24] | 5.96
C[C@@]1(N)[C@H](O)[C@@H](COP(=O)(O)OP(=O)(O)OP(=O)(O)O)O[C@H]1c1cnn2c(N)ncnc12 [US9457039, 25] | 4.29

Source: BindingDB's records for patent US9457039 (Merck Sharp & Dohme Corp, 2016)
